Data published in patent US7932266B2, “Isoquinoline derivatives as calpain inhibitors” (Consejo Superior de Investigaciones Cientificas, priority 2004, dated 2011).

Legend:
[1] = molecular target: T1, calpain I from porcine erythrocyte (Sus scrofa, UniProt P35750); assay: Enzyme activity test: inhibition of calpain (fluorimetric, BODIPY-FL casein substrate); type: biochemical; conditions: 7 inhibitor concentrations between 10 nM and 200 μM
T1 construct: calpain I from porcine erythrocyte (Calbiochem, Cat No 208712) was used as enzyme; purchased Calbiochem 208712; host or cells: porcine erythrocyte (natural source)
T1 sequence (P35750 1-714): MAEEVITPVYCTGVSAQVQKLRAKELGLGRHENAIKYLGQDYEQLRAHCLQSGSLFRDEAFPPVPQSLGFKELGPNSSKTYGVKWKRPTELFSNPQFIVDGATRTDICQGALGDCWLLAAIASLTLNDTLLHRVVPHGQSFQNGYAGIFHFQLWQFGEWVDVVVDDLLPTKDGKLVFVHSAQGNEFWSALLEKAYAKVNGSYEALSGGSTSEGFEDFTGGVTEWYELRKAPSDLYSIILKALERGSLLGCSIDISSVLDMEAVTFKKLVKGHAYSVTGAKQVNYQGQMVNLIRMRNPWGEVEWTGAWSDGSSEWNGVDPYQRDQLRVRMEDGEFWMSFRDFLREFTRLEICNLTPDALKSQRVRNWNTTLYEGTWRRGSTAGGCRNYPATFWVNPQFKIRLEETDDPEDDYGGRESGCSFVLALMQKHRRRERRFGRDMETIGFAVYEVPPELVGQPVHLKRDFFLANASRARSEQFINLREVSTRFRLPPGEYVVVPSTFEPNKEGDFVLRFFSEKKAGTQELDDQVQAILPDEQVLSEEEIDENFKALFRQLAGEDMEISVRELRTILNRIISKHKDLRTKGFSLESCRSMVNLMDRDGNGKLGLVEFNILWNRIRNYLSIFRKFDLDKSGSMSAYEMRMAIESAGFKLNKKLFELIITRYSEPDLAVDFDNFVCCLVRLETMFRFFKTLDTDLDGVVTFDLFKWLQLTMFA
T1 sequence (P04574 1-266 partner): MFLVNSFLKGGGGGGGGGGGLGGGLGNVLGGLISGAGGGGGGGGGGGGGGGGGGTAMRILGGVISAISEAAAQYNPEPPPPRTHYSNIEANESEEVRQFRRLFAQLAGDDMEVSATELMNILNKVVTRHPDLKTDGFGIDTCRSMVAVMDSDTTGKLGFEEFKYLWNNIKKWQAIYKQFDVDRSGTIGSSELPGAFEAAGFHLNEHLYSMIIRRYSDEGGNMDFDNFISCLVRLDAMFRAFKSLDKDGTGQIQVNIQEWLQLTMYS
Description: The capacity to inhibit calpain has been quantified in terms of the value of IC50, which is defined as the concentration of inhibitor that reduces the catalytic activity of an enzyme by half. The lower the value of IC50, the more powerful the inhibitor. Inhibition results on calpain I (the most relevant from a physiological point of view) of some compounds of the present invention are shown in table 1 and in FIG. 1. Given that calpain II, also known as milli-calpain, needs a greater amount of Ca^2+ for activation, it might not possibly have such a relevant physiological role since such a concentration of Ca^2+ would cause cell death before the milli-calpain could become activated. For this reason, the inhibition tests have been performed for calpain I, though they can be extrapolated for calpain II.
The calpain inhibition capacity has been quantified in terms of the value of IC50, which is defined as the concentration of inhibitor that reduces the catalytic activity of an enzyme by half. The lower the value of IC50, the more powerful the inhibitor. Inhibition results on calpain I (the most relevant from a physiological point of view) of some compounds of the present invention are shown in table 1 and in FIG. 1.
The experiments were conducted spectrofluorimetrically using a Spectrofluor Tecan Corp 93382 spectrofluorimeter, exciting at […] and measuring at […]. Casein marked with BODIPY-FL® (Molecular Probes) was used as substrate and calpain I from porcine erythrocyte (Calbiochem, Cat No 208712) was used as enzyme. The freeze-dried substrate is component A of the protease assay kit EnzChek® green fluorescence from Molecular Probes (reference # E-6638); component B, known as 20× digestion buffer, contains 13 mL of 200 mM Tris-HCl, pH 7.8 and 2 mM sodium azide. The commercial calpain I that was used has a concentration of 1 mg in 1 mL of aqueous solution (the solution is 20 mM imidazol-HCl, pH 6.8, 1 mM EDTA, 1 mM EGTA, 5 mM β-mercaptoethanol, containing 30% glycerine).
2.5 mL of 20× digestion buffer (component B of the kit from Molecular Probes) was diluted with water to a total volume of 50 mL.
200 μg of freeze-dried substrate (component A of the kit from Molecular Probes) was dissolved in 200 μL of phosphate saline buffer. This solution was decanted into a graduated flask and diluted with the digestion solution to a total volume of 40 mL.
20 μL of commercial solution of calpain was diluted with the digestion solution to a total volume of 200 μL.
The inhibitor was dissolved in DMSO. Each inhibitor was assayed at 7 different concentrations between 10 nM and 200 μM.
All the data were obtained measuring the variation in fluorescence with time. The use of a multi-cell device and Eppendorf multi-channel pipettes permitted measurement of the variation in fluorescence in up to 64 experiments. In this way, the control experiment and the experiments with the different concentrations of inhibitor was carried out in the same set of measurements. All the experiments were conducted twice.
The control experiment was carried out mixing 180 μL of casein solution and 5 μL of calpain solution. The reaction was initiated by the addition of 10 μL of a 50 μM solution of CaCl2 in water, and the fluorescence was measured from the moment of the addition of Ca^2+ (time=0) and for 250-300 seconds (measuring during 20 kinetic cycles). The variation in fluorescence (ΔF) was represented against time (t). In order to test the effect of DMSO on enzyme activity, additional control experiments were conducted adding DMSO (in the quantities used in the experiments with the inhibitors), with the same result being obtained as in the control experiment.
180 μL of casein solution, 5 μL of calpain solution and 5 μL of inhibitor solution (of variable concentration) were mixed together. […]

CC[C@H](C)[C@@H]1NC(=O)c2ccccc2/C1=C/C(=O)Nc1ccccc1-c1ccccc1NC(=O)[C@@H](NC(=O)OCC1c2ccccc2-c2ccccc21)C(C)C [Compound 19, (S,S,S,Z)-9H-fuorene-9-ylmethyl (1-{2′-[2-(3-sec-butyl-1-oxo-2,3-dihydro-1H-isoquinolin-4-yliden)-acetylamino]-biphenyl-2-ylcarbamoyl}-2-methyl-propyl)-carbamate]
IC50 [1]: 100 µM
melting point: 133 to 135 °C

CC[C@H](C)[C@@H]1NC(=O)c2ccccc2/C1=C/C(=O)N[C@H](C(=O)N[C@@H](Cc1ccccc1)C(=O)OC)C(C)C [Compound 27, methyl (S,S,S,S,Z)-2-{2-[2-(3-sec-butyl-1-oxo-2,3-dihydro-1H-isoquinolin-4-yliden)-acetylamino]-3-methyl-butirylamino}-3-phenyl-propionate]
IC50 [1]: 0.626 µM
melting point: 174 to 176 °C

CC[C@H](C)[C@@H]1NC(=O)c2ccccc2/C1=C/C(=O)OCc1ccccc1 [Compound 11, benzyl (S,S,Z)-(3-sec-butyl-1-oxo-2,3-dihydro-1H-isoquinolin-4-yliden)-acetate]
IC50 [1]: 124 µM
melting point: 53 to 54 °C

CC[C@H](C)[C@@H]1NC(=S)c2ccccc2/C1=C/C(=O)O [Compound 29, (S,S,Z)-(3-sec-butyl-1-thioxo-2,3-dihydro-1H-isoquinolin-4-yliden)-acetic acid]
melting point: 193 to 196 °C

CC[C@H](C)[C@@H]1NC(=O)c2ccccc2/C1=C/C(=O)Nc1ccccc1-c1ccccc1NC(=O)[C@@H](N)Cc1ccccc1 [Compound 23, (S,S,S,Z)-2-amino-N-{2′-[2-(3-sec-butyl-1-oxo-2,3-dihydro-1H-isoquinolin-4-yliden)-acetylamino]-biphenyl-2-yl}-3-phenyl-propionamide]
IC50 [1]: 7 µM

CC[C@H](C)[C@H](N)C(=O)Nc1ccccc1-c1ccccc1NC(=O)/C=C1/c2ccccc2C(=O)N[C@H]1[C@@H](C)CC [Compound 24, (S,S,S,S,Z)-2-amino-N-{2′-[2-(3-sec-butyl-1-oxo-2,3-dihydro-1H-isoquinolin-4-yliden)-acetylamino]-biphenyl-2-yl}-3-methyl-pentanamide]
IC50 [1]: 50 µM

CCCCOC(=O)/C=C1/c2ccccc2C(=O)N[C@H]1[C@@H](C)CC [Compound 10, 1-butyl (S,S,Z)-(3-sec-butyl-1-oxo-2,3-dihydro-1H-isoquinolin-4-yliden)-acetate]
melting point: 110 to 112 °C

CC[C@H](C)[C@@H]1NC(=O)c2ccccc2/C1=C/C(=O)Nc1ccccc1-c1ccccc1NC(=O)[C@H](Cc1ccccc1)NC(=O)OCC1c2ccccc2-c2ccccc21 [Compound 20, (S,S,S,Z)-9H-fuorene-9-ylmethyl (1-{2′-[2-(3-sec-butyl-1-oxo-2,3-dihydro-1H-isoquinolin-4-yliden)-acetylamino]-biphenyl-2-ylcarbamoyl}-2-phenyl-ethyl)-carbamate]
IC50 [1]: 48 µM
melting point: 108 to 110 °C

CC[C@H](C)[C@@H]1NC(=O)c2ccccc2/C1=C/C(=O)Nc1ccccc1-c1ccccc1NC(=O)/C=C1/c2ccccc2C(=O)N[C@H]1[C@@H](C)CC [Compound 18, (S,S,S,S,Z,Z)-2,2′-bis-[(3-sec-butyl-1-oxo-2,3-dihydro-1H-isoquinolin-4-yliden)-acetylamino]biphenyl]
IC50 [1]: 0.742 µM
melting point: 177 to 180 °C

CC[C@H](C)[C@@H]1NC(=O)c2ccccc2/C1=C/C(=O)Nc1ccccc1-c1ccccc1NC(=O)[C@@H](N)C(C)C [Compound 22, (S,S,S,Z)-2-amino-N-{2′-[2-(3-sec-butyl-1-oxo-2,3-dihydro-1H-isoquinolin-4-yliden)-acetylamino]-biphenyl-2-yl}-3-methyl-butyramide]
IC50 [1]: 17 µM
melting point: 110 to 113 °C

CC[C@H](C)[C@@H]1NC(=O)c2ccccc2/C1=C/C(=O)OC [Compound 7, methyl (S,S,Z)-(3-sec-butyl-1-oxo-2,3-dihydro-1H-isoquinolin-4-yliden)-acetate]
IC50 [1]: 0.025 µM

CC[C@H](C)[C@@H]1NC(=O)c2ccccc2/C1=C/C(=O)OCC#CCOC(=O)/C=C1/c2ccccc2C(=O)N[C@H]1[C@@H](C)CC [Compound 13]
IC50 [1]: 59 µM
melting point: 85 to 87 °C

CC[C@H](C)[C@H](NC(=O)/C=C1/c2ccccc2C(=O)N[C@H]1[C@@H](C)CC)C(=O)N[C@H](C(=O)OC)[C@@H](C)CC [Compound 25, methyl (S,S,S,S,S,Z)-2-{2-[2-(3-sec-butyl-1-oxo-2,3-dihydro-1H-isoquinolin-4-yliden)-acetylamino]-3-methyl-pentanoylamino}-3-methyl-pentanoate]
IC50 [1]: 0.447 µM

CC[C@H](C)[C@@H]1NC(=O)c2ccccc2/C1=C/C(=O)O [Compound 8, (S,S,Z)-(3-sec-butyl-1-oxo-2,3-dihydro-1H-isoquinolin-4-yliden)-acetic acid]
melting point: 215 to 216 °C

CC[C@H](C)[C@H](NC(=O)/C=C1/c2ccccc2C(=O)N[C@H]1[C@@H](C)CC)C(=O)N[C@H](C(=O)N[C@H](C(=O)OC)[C@@H](C)CC)[C@@H](C)CC [Compound 26, methyl (S,S,S,S,S,S,S,S,S,Z)-2-(2-{2-[2-(3-sec-butyl-1-oxo-2,3-dihydro-1H-isoquinolin-4-yliden)-acetylamino]-3-methyl-pentanoylamino}-3-methyl-pentanoylamino)-3-methyl-pentanoate]
IC50 [1]: 0.159 µM
melting point: 151 to 154 °C

CC[C@H](C)[C@H](NC(=O)/C=C1/c2ccccc2C(=S)N[C@H]1[C@@H](C)CC)C(=O)N[C@H](C(=O)OC)[C@@H](C)CC [Compound 30, methyl (S,S,S,S,S,S,Z)-2-{2-[2-(3-sec-butyl-1-thioxo-2,3-dihydro-1H-isoquinolin-4-yliden)-acetylamino]-3-methyl-pentanoylamino}-3-methyl-pentanoate]
melting point: 178 to 181 °C

CC[C@H](C)[C@@H]1NC(=O)c2ccccc2/C1=C/C(=O)Nc1ccccc1-c1ccccc1N [Compound 17, (S,S,Z)-N-(2′-amino-biphenyl-2-yl)-2-(3-sec-butyl-1-oxo-2,3-dihydro-1H-isoquinolin-4-yliden)-acetamide]
IC50 [1]: 0.086 µM
